Assay [1] concerns hyperlipidemic golden hamsters. In words: Hyperlipidemic golden hamster model, 4 weeks of treatment. In kind it is in vivo. To be noted: 50 mg/kg FENO po.
In a further assay the target is T1, NTCP (Homo sapiens, UniProt Q14973).
T1 sequence (Q14973 1-349): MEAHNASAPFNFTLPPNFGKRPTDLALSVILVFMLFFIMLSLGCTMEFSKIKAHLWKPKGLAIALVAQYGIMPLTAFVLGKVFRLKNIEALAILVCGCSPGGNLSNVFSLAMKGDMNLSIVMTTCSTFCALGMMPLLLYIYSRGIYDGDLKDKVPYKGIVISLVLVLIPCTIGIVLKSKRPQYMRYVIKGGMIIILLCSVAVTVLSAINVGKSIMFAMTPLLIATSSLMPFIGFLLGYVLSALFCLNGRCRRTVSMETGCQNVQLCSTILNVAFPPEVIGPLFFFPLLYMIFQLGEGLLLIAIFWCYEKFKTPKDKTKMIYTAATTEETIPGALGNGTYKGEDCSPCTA
In words: In vitro bile acids assay (3H-TA uptake by NTCP-293 cells).

The test system of assay [2] is Zucker Diabetic Fatty (ZDF) rats. Kind of assay: Zucker Diabetic Fatty (ZDF) rats, 4 weeks of treatment (GLU, HbA1c, insulin, TC, TG, BUN, organ index, TBA). In kind it is in vivo, rat.
The mark [3] stands for this setting: 300 mg/kg Met, 2 weeks of dosing.
The mark [4] stands for this setting: 300 mg/kg Met, 4 weeks of dosing.
[5] abbreviates: ZDF rats, after 4 weeks of treatment, 300 mg/kg Met oral gavage, mean ± SEM.

Turning to `CC(C)OC(=O)C(C)(C)Oc1ccc(C(=O)c2ccc(Cl)cc2)cc1` [FENO, Fenofibrate], in assay [1] (2 w of dosing), the “Serum TC (χ ± S)” value came out at 6.63 ± 4.40 mmol/L and the “Serum TG (χ ± S)” value worked out at 3.14 ± 0.4 mmol/L. In addition, in assay [1] (4 w of dosing), the “Serum TC (χ ± S)” value was 7.42 ± 1.70 mmol/L and the “Serum TG (χ ± S)” value is 2.68 ± 0.30 mmol/L. In addition, in assay [1] (4 weeks post the treatment), the “Serum HDL-C” value amounted to 3.13 ± 0.30 mmol/L and the “Serum LDL-C” value is on record as 1.88 ± 0.40 mmol/L. In assay [1] (4 weeks, AI=(TC−HDL-C)/HDL-C), the “AI (atherosclerosis index)” value is given as 1.36 ± 0.38. Moreover, in assay [1] (before dosing), the “Serum TC (χ ± S)” value worked out at 11.34 ± 0.50 mmol/L and the “Serum TG (χ ± S)” value is given as 6.16 ± 1.30 mmol/L.
For the molecule `C=C[C@H]1C[N@@]2CC[C@H]1C[C@@H]2[C@@H](O)c1ccnc2ccc(OC)cc12` [quinidine], the “Effect on TA absorption” value is reported as “enhanced TA absorption” on NTCP (0.1 μmol/L, FIG. 5E) and “enhanced TA absorption” on NTCP (20 μmol/L, FIG. 5F).
On to `CN(C)C(=N)N=C(N)N` [Met, Metformin], for which the “Fasting serum GLU (χ ± SEM)” value amounted to 7.98 ± 1.02 mmol/L in assay [2] (300 mg/kg Met oral gavage, 2 weeks of dosing); 8.35 ± 0.58 mmol/L in assay [2] (300 mg/kg Met oral gavage, 4 weeks of dosing); 9.71 ± 0.96 mmol/L in assay [2] (300 mg/kg Met oral gavage, week 0). The Serum BUN (χ ± SEM) in assay [2] (setting [3]) came to 6.58 ± 0.52 mM; in assay [2] (setting [4]) it was 7.09 ± 0.36 mM; in assay [2] (300 mg/kg Met, week 0) it was 5.52 ± 0.21 mM. For the same molecule, the Serum TC (χ ± SEM) in assay [2] (setting [3]) stood at 5.24 ± 0.35 mM; in assay [2] (setting [4]) it was 6.95 ± 0.54 mM; in assay [2] (300 mg/kg Met, week 0) it was 3.82 ± 0.11 mM. The “HbA1c level (χ ± SEM)” value was found to be 5.07 ± 0.23 % in assay [2] (setting [4]) and 6.25 ± 0.31% in assay [2] (300 mg/kg Met, week 0). Further, the “Serum insulin (χ ± SEM)” value in assay [2] (300 mg/kg Met, week 0) amounted to 6.74 ± 0.62 ng/mL. Further, in assay [2] (MET 300 mg/kg, 4 weeks, FIG. 27A), the “Heart index (HI) vs model controls” value is given as “had no effect on the HI values”. In assay [2] (MET 300 mg/kg, 4 weeks, FIG. 27C), the “Total fat index (TFI) vs model controls” value was “appeared to increase the TFI values”. Besides, the “Fasting serum GLU” value in assay [2] (MET positive control in the experiment with additional polypeptides, FIGS. 18A, 18B) is “significantly decreased fasting serum GLU”. For the same molecule, the Serum TBA level after weeks of dosing came out at 32.8 ± 12.3 µM in assay [2] (ZDF rats, 300 mg/kg Met, week 0, mean ± SEM); 82.5 ± 27 µM in assay [2] (ZDF rats, 300 mg/kg Met, week 2, mean ± SEM); 83 ± 15.8 µM in assay [2] (ZDF rats, 300 mg/kg Met, week 4, mean ± SEM). In assay [2] (setting [5]), the Heart index is listed as 3.63 ± 0.24 g/kg. This molecule also had a Kidney index in assay [2] (setting [5]) of 7.26 ± 0.55 g/kg. This molecule showed a Total fat index in assay [2] (setting [5]) of 94.64 ± 3.79 g/kg.

The values are drawn from US11633454B2, “Compositions and methods for treating metabolic diseases” (SHANGHAI HEP PHARMACEUTICAL CO., LTD., priority 2016, dated 2023).
